Laboratory results: the supplement of paper PMC10307832

Tests used:
Experiment in all cases: relative viability (nuclei count vs DMSO), 5 days (fraction); higher = more cells survive
[1] = compound: C1/C(=C\C2=CC=CS2)/C(=O)/C(=C/C3=CC=CS3)/C1 + NC(=O)Nc1cc(-c2cccc(F)c2)sc1C(=O)N[C@H]1CCCNC1 [AZD7762] (partner 0.2 µM)
Outline: (§1)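 Lung cancer cell lines were seeded in 1536-well plates and dosed by pin tool the next day, with either a single drug or a fixed anchor-drug dose combined with five library-drug doses (not always all listed) spaced in √10 steps. Five days later, one step fixed the cells and stained their nuclei (final 0.05% Triton X-100, 1% formaldehyde, 1 ug/ml Hoechst), and nuclei were counted on 4× images. Relative viability is the nuclei count in treated wells divided by the count in vehicle wells, and each value is the median of duplicate plates.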

[2] = compound: C1=CC(=CC=C1C2=CC(=C(S2)NC(=O)N)C(=O)N)F [TPCA-1] + CC(=O)c1c(C)c2cnc(Nc3ccc(N4CCNCC4)cn3)nc2n(C2CCCC2)c1=O [Palbociclib] (partner 0.5 µM)
Outline: as §1

[3] = compound: C1=CC(=CC=C1C2=CC(=C(S2)NC(=O)N)C(=O)N)F [TPCA-1] + C[C@]1(O)C[C@@H](c2nc(-c3ccc4ccc(-c5ccccc5)nc4c3)c3c(N)nccn32)C1 [Linsitinib] (partner 1 µM)
Outline: as §1

[4] = compound: C[C@]12O[C@H](C[C@]1(O)CO)n1c3ccccc3c3c4c(c5c6ccccc6n2c5c31)CNC4=O [Lestaurtinib] + CC(=O)c1c(C)c2cnc(Nc3ccc(N4CCNCC4)cn3)nc2n(C2CCCC2)c1=O [Palbociclib] (partner 0.5 µM)
Outline: as §1

Row | Cell Line | relative viability ([1]; first compound 0.2 µM) | relative viability ([1]; first compound 0.6325 µM) | relative viability ([1]; first compound 2 µM) | relative viability ([1]; first compound 6.325 µM) | relative viability ([1]; first compound 20 µM) | relative viability ([2]; first compound 0.04 µM) | relative viability ([2]; first compound 0.1265 µM) | relative viability ([2]; first compound 0.4 µM) | relative viability ([2]; first compound 1.265 µM) | relative viability ([2]; first compound 4 µM) | relative viability ([3]; first compound 0.04 µM) | relative viability ([3]; first compound 0.1265 µM) | relative viability ([3]; first compound 0.4 µM) | relative viability ([3]; first compound 1.265 µM) | relative viability ([3]; first compound 4 µM) | relative viability ([4]; first compound 0.005 µM) | relative viability ([4]; first compound 0.01581 µM) | relative viability ([4]; first compound 0.05 µM) | relative viability ([4]; first compound 0.1581 µM) | relative viability ([4]; first compound 0.5 µM)
1 | NCI-H358 | 0.643 | 0.53 | 0.593 | 0.444 | 0.572 | 0.152 | 0.157 | 0.137 | 0.109 | 0.108 | 0.902 | 0.557 | 0.691 | 0.487 | 0.339 | 0.132 | 0.131 | 0.14 | 0.111 | 0.108
2 | NCI-H441 | 1.35 | 1.22 | 1.29 | 1.01 | 1.13 | 0.186 | 0.183 | 0.188 | 0.239 | 0.162 | 0.669 | 0.287 | 0.569 | 0.328 | 0.188 | 0.192 | 0.238 | 0.225 | 0.199 | 0.207
3 | NCI-H460 | 0.684 | 0.595 | 0.634 | 0.618 | 0.609 | 0.187 | 0.086 |  | 0.16 | 0.136 | 0.946 | 0.737 | 0.735 | 0.339 | 0.286 | 0.151 | 0.231 | 0.112 | 0.116 | 0.116
4 | NCI-H647 | 0.504 | 0.471 | 0.446 | 0.445 | 0.592 | 0.47 | 0.4 | 0.342 | 0.38 | 0.188 | 1.11 | 1.07 | 1.1 | 1.05 | 0.694 | 0.382 | 0.201 | 0.227 | 0.247 | 0.164
5 | NCI-H650 | 1.14 | 0.952 | 0.897 | 0.937 | 1.11 | 0.347 | 0.323 | 0.343 | 0.266 | 0.279 | 1.08 | 0.755 | 0.89 | 0.382 | 0.465 | 0.315 | 0.323 | 0.249 | 0.236 | 0.229
6 | NCI-H727 | 0.574 | 0.527 | 0.731 |  | 0.682 | 0.761 | 0.47 | 0.594 | 0.62 | 0.593 | 0.203 | 0.318 | 0.342 | 0.223 | 0.244 | 0.723 | 0.713 | 0.719 |  | 0.716
7 | NCI-H838 | 0.967 | 0.949 | 0.933 | 0.875 | 0.841 | 0.225 | 0.193 | 0.222 | 0.194 | 0.199 | 1.06 | 0.868 | 0.962 | 0.886 | 0.811 | 0.209 | 0.204 | 0.196 | 0.194 | 0.147
8 | NCI-H1355 | 0.69 | 0.835 | 0.804 | 0.559 | 0.622 | 0.455 | 0.395 | 0.408 | 0.389 | 0.361 | 0.99 | 0.709 | 0.737 | 0.711 | 0.667 | 0.455 | 0.403 | 0.332 | 0.273 | 0.254
